Results taken from publication PMC4015918, “Conjugation to a SMAC mimetic potentiates sigma-2 ligand induced tumor cell death in ovarian cancer” (Molecular Cancer, 2014).

Key:
cIAP-1 and cIAP-2 = assay: Western blot for cIAP-1 and cIAP-2 levels; assay type: cell-based; conditions: 10 μM
Procedure: Figure 4 SW IV-134 engages in SMAC-dependent pathway activation. (A) SKOV3 cells were treated with vehicle only (Ctrl.), SW43 (10 μM), and SW IV-134 (10 μM) for 4 hours and cell lysates were subjected to Western blot analysis using antibodies against XIAP, cIAP-1, cIAP-2, NF-қB and NIK. While XIAP seems unaffected under the conditions used, cIAP-1 and cIAP-2 proteins are readily undetectable shortly post treatment. SW IV-134 treatment also leads to accumulation of NF-қB inducing kinase (NIK) and activation of NF-қB pathway. (B) SKOV3 cells were treated with SW IV-134 at the indicated doses either alone or in the presence of proteasome inhibitor MG132 (20 μM) for 18 hours. […] Cell viability was determined as described in the experimental methods (p < 0.011, Student’s t-test).
Cells were lysed in radioimmunoprecipitation assay buffer [50 mM Tris, 150 mM sodium chloride, 1.0 mM EDTA, 1% Nonidet P40, and 0.25% SDS (pH 7.0)], supplemented with complete protease inhibitor cocktail (Roche, Mannheim) and phosphatase inhibitor cocktail 1 (Sigma Chemical Co., St. Louis, MO). The protein concentration was determined using a BioRad Dc protein assay kit (Bio-Rad Laboratories, Hercules, CA). Lysates containing 30 μg of protein were run on a 12% polyacrylamide gel and transferred to a PVDF membrane (Bio-Rad Laboratories, Hercules, CA). […]

TNFα mRNA = assay: Quantitative RT-PCR of TNFα mRNA; assay type: cell-based; conditions: SKOV3 cells, 1 μM and 3 μM, 4-24 hours, normalized to GAPDH; maximal at 24 hours
Procedure: Figure 5 SW IV-134 induces activation of the TNFα-dependent extrinsic death pathway. (A) Quantitative real-time PCR analysis of TNFα mRNA expression was done on RNA samples derived from SKOV3 cells treated with SW IV-134 (1 μM and 3 μM) for indicated time periods. All values were normalized to a GAPDH internal control (p < 0.0001, one-way ANOVA). (B) SKOV3 cells were treated with SW IV-134 (1 μM and 3 μM) and cell-culture supernatants were collected at 4, 12, and 24 hours after treatment, and subsequently examined by anti-TNFα ELISA according to manufacturer’s instructions (p < 0.0001, one-way ANOVA). (C) SKOV3 cells were treated with SW IV-134 at indicated doses either alone or in the presence of anti-TNFα blocking antibody for 18 hours. Cell viability was determined as described in the experimental methods (p < 0.019, Student’s t-test).
SKOV3 cells were treated with SW IV-134 (1 μM, 3 μM) or vehicle-control for 4 hours, 12 hours, and 24 hours. At the end of each treatment, cells were harvested and total RNA was isolated using TRIzol reagent (Invitrogen, Grand Island, NY) and RT-PCR performed as per the protocol described before. Briefly, one microgram of RNA from each sample was reverse transcribed to cDNA with Retroscript (Ambion, Austin, TX). […] TNFα data were normalized for expression with GAPDH, and results were expressed as fold change over untreated controls.

With `COc1ccc(C)cc1NC(=O)OC1CC2CCCC(C1)N2CCCCCCCCCCN[C@@H](C)C(=O)N[C@H](C(=O)N1CCC[C@H]1C(=O)N[C@@H]1CCCc2ccccc21)C(C)(C)C` (stereo partly drawn) [SW IV-134] the cIAP-1 protein level (cIAP-1 and cIAP-2; SKOV3, Hey A8 and Hey A8 MDR cells, 2 hours) was “readily undetectable shortly after treatment”, the “cIAP-1 and cIAP-2 protein levels” value (cIAP-1 and cIAP-2; SKOV3 cells, 4 hours) was “rapid loss of both cIAP-1 and cIAP-2” and the “Increase in TNFα mRNA levels compared to untreated cells” value (TNFα mRNA) was 20-50 fold.
